Patent US12220399B2, “Pharmaceutical compositions comprising one or more pyrone compounds, and their use for treating inflammatory and neurodegenerative diseases” (NeuroTheryX Canada LTD, priority 2015, dated 2025)

Tests used:
MO3-13 cells [1] = conditions: differentiated (serum deprived 48 hrs) MO3-13 cells, increasing amounts of Cpz, 24 hrs, visual assessment by phase contrast, FIG. 1
Description: MO3-13 cells were plated onto 10 cm cell culture dishes and grown in DMEM containing 5% FBS. Cells were grown to 75% confluence, after which serum containing DMEM medium was replaced with FBS free DMEM. Cells were grown for 48 hrs under serum deprived conditions.

[2] = test system: myelin basic protein (MBP); assay: Induction of myelin basic protein (MBP) production, anti-MBP slot blot of MO3-13 whole cell extracts; type: cell-based, human; conditions: FIG. 3
Description: Dilutions (0.1 mg/mL) of MO3-13 whole cell extracts were prepared and the proteins (5 μg) from the dilutions were blotted onto nitrocellulose membrane using a slot blotter. The non-protein sites on the blot were blocked with 2% ECL block in PBS-Tween20. Primary anti-Bov MBP was diluted in block solution at 300×. The primary antibody was incubated overnight at 4° C. with gentle shaking. The following day the blot was developed using enhanced ECL (GE Healthcare) method. Image of bound antibody were captured using Image Lab software driving a Bio-Rad ChemiDoc XRS+ image capture system.

MO3-13 cells [3] = assay: Protection of MO3-13 oligodendrocytes from Cpz toxicity; type: cell-based, human; conditions: compound at 5 μM, Cpz at 50 μM, 24 hrs, visual assessment, FIG. 2
Description: The protective effects of compounds […] on MO3-13 cells from Cpz toxicity were then determined. […] Cpz at a final concentration of 50 μM was solubilized in 100% ethanol was added to selected dishes with compound A1 or A2 at 5 μM in DMSO, or DMSO alone as a control.

[4] = MO3-13 cells treated with Cpz (50 μM) plus compound (5 μM)
[5] = MO3-13 cells treated with compound alone (5 μM)

O=C(NN=C1CCCCC1)C(=O)NN=C1CCCCC1 [Cpz, cuprizone, reference compound]
Cpz toxicity to MO3-13 cells (MO3-13 cells [1]): toxic | anti-MBP antibody binding as compared with non-treated (DMSO) cells ([2]; MO3-13 cells treated with Cpz (50 μM)): reduced

O=c1cc(-c2ccccc2)cc(-c2ccccc2)o1 [A3, 4,6-diphenyl-2H-pyran-2-one]
protection of human oligodendrocytes (MO3-13) against the toxicity of Cpz (MO3-13 cells [3]): protection | MBP bound by anti-MBP [2, 4]: significantly higher | MBP bound by anti-MBP [2, 5]: significantly higher

O=c1cc(-c2ccccc2)cc(C2CCCCC2)o1 [compound A2, 6-cyclohexyl-4-phenyl-2H-pyran-2-one]
protection of human oligodendrocytes (MO3-13) against the toxicity of Cpz (MO3-13 cells [3]): protection | MBP bound by anti-MBP [2, 4]: significantly higher | MBP bound by anti-MBP [2, 5]: significantly higher
